Assay results as given in patent US11147801B2, “Methods of use for trisubstituted benzotriazole derivatives as dihydroorotate oxygenase inhibitors” (Aurigene Discovery Technologies Limited, priority 2017, dated 2021).

Experiments:
[1] = biological target: DHODH (Homo sapiens (Human), UniProt Q02127); assay: DHODH activity assay (coupled enzyme assay, DCIP reduction); type: biochemical; settings: read-out: DHODH inhibition activity, IC50 group
Protocol: The DHODH activity assay is a coupled enzyme assay in which oxidation of DHO and subsequent reduction of ubiquinone are stoichiometrically equivalent to the reduction of DCIP ([…]). The reduction of DCIP is accompanied by a loss of absorbance at 610 nm.
Buffer Preparation: 50 mM tris HCl, 150 mM KCl, and pH 8.0, 0.8% triton.
L-Dihydroorotic acid stock solution of 20 mM in buffer.
2, 6-Dichloroindophenol Sodium salt hydrate stock solution of 20 mM in buffer.
Decylubiquinone stock solution of 20 mM in buffer.
5 μL of Dimethyl sulfoxide or a compound of formula (I) in DMSO solution was added to the wells of a 96 well plate. Compounds of formula (I) were measured at 10 μM.
Protein along with buffer was added, so that the total volume including the DMSO was 87 μL. Compound and protein were incubated for half an hour at room temperature after mixing. 5 μL of 20 mM solution of L-Dihydroorotic acid, 5 μL of 2 mM solution of Decylubiquinone and 3 μL of 2 mM solution of 2, 6-Dichloroindophenol sodium salt hydrate were added to the above solution (total assay volume 100 μL). The mixture was stirred for 2 min and absorbance was recorded at every 10 min at 610 nanometers.
Percent inhibition is calculated as follows: […]
A 2 mM DMSO stock solution of the selected trisubstituted benzoimidazole and benzotriazole derivatives of formula (I) of the present invention to be examined was prepared. Subsequent ⅓rd dilutions were made.
5 μL of each stock of compound of formula (I) was used for each 100 μL assay. Therefore, 5 μL of the 2 mM stock provided 100 μL of 100 μM solution of compound of formula (I), when made up with buffer, protein and substrate. See also: Ulrich et al. (2001) Eur. J. Biochem.268, 1861-1868.

[2] = system: Ramos cells; assay: Ramos proliferation assay (XTT); type: cell-based; settings: Homo sapiens, 72 hrs; for inhibition at 30 µM: read-out: Maximum % Inhibition at 30 μM; for IC50: XTT; for inhibition at 10 µM: read-out: Maximum % Inhibition (at 10 μM)
Description: Cell proliferation assay is a sensitive method for quantification of viable cells in cytotoxicity or proliferation assay. The XTT (2,3-bis[2-Methoxy-4-nitro-5-sulfophenyl]-2 H-tetrazolium-5-carboxyanilide inner salt) system is a means of measuring the activity of living cells via mitochondrial dehydrogenases. Mitochondrial dehydrogenases of viable cells cleave the tetrazolium ring of XTT, yielding orange formazon crystals which are soluble in aqueous solutions. The XTT solution is potentiated by the addition of an electron coupling agent, phenazine methosulphate (PMS) to the reaction. The resulting orange colour is spectrophotometrically measured at 450 nm. An increase or decrease in cell numbers results in a concomitant change in the amount of formazon formed, indicating the degree of cytotoxicity caused by the test material.
Dissolve 17.7 g IMDM (Iscove's Modified Dulbecco's Medium) powder, 1.5 g sodium bicarbonate pH 7.2-7.4 in 1 L MiliQ water, add 1% Pencilin/ Streptomycin and 10% FBS.
Dissolve 10.6 g Ham's F12 powder, 1.5 g sodium bicarbonate pH 7.2-7.4 in 1 L MiliQ water, add 1% Penicillin/Streptomycin. DMSO used as vehicle.
Ramos cells were re-suspended to a density of 1×10^5 cells/ ml in complete IMDM medium. 95 μL of this cell suspension was added to the 96-well plate to seed ˜10,000 cells per well. The plates were incubated at 37° C. under a humidified atmosphere of 5% CO2 for ˜1 hour before compound addition.
Test compounds (Refer to Table 1) were dissolved in 100% DMSO to generate a 2/6/10/20 mM stock solution. A 200× concentration of the required final concentrations was prepared in DMSO. 10 μL of each concentration (200×) was then diluted in 90 μL of serum-free Ham's F12 medium to get an intermediate concentration of 20× in medium. The DMSO concentration in this step is 10% (Intermediate dilution). 5 μL of each intermediate dilution was then added in triplicates in the previously seeded 96-well plate. The final DMSO concentration was 0.5% in the experimental wells. Cells treated with 0.5% DMSO served as positive control. 100 μL, of complete IMDM medium served as media blank for data analysis. 200 μL, of 1× PBS was added in all corner wells of the assay plate. Plates were then incubated for 72 hrs in an incubator with 5% CO2 at 37° C.
On termination day, 100 μl of XTT solution (1 mg/ml XTT supplemented with 25 μM PMS in Ham's F12 medium) was added to each well. Plates were incubated for 2 hrs. The amount of formazon produced was determined by reading the absorbance of the plate using VICTOR X5 multilabel plate reader at wavelength of 450 nm. The IC50 values were determined as concentrations that reduced cell viability by 50% and the curve was plotted with GraphPad Prism 6.0.
Percent (%) Inhibition was calculated by normalizing DMSO control values to 100% using the formula: % Inhibition=[…](Abs450test compound−blank)/(Abs450positive control−blank)*100
Test compound contains cells, test compound, IMDM medium and 0.5% DMSO
Positive control contains cells, IMDM medium and 0.5% DMSO
Blank contains IMDM medium

Sequence of DHODH (Q02127 whole entry): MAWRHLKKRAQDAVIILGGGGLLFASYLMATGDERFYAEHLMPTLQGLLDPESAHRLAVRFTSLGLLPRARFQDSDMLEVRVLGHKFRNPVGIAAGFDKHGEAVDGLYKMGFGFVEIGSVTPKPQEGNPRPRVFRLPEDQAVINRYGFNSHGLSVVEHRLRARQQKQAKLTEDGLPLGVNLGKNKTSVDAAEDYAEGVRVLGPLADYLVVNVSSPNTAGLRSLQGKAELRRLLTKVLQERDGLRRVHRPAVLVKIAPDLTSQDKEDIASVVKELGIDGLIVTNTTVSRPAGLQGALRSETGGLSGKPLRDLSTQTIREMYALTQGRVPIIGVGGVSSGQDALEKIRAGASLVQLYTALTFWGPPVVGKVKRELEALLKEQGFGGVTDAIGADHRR

| IC50 [1] | IC50 [2] | SMILES | inhibition at 30 µM [2] | inhibition at 10 µM [2] |
| --- | --- | --- | --- | --- |
| < 100 nM | 70 nM | Cn1nnc2cc(-c3c(F)c(F)c(-c4ccccc4)c(F)c3F)cc(C(=O)O)c21 [Compound 19, 1-methyl-5-(2,3,5,6-tetrafluoro-[1,1′-biphenyl]-4-yl)-1H-benzo[d][1,2,3]triazole-7-carboxylic acid] | 106% | – |
| > 1000 nM | – | CN1CCN(Cc2cccc(-c3c(F)c(F)c(-c4cc(C(=O)O)c5c(c4)nnn5C)c(F)c3F)c2)CC1 [Compound 35, 1-methyl-5-(2,3,5,6-tetrafluoro-3′-((4-methylpiperazin-1-yl)methyl)-[1,1′-biphenyl]-4-yl)-1H-benzo[d][1,2,3]triazole-7-carboxylic acid] | – | – |
| 101 to 1000 nM | 524 nM | Cn1nnc2cc(-c3ccc(-c4ccccc4)cc3)cc(C(=O)O)c21 [Compound 3, 5-([1,1′-biphenyl]-4-yl)-1-methyl-1H-benzo[d][1,2,3]triazole-7-carboxylic acid] | 113% | – |
| 101 to 1000 nM | 1450 nM | Cn1nc2cc(-c3ccc(-c4ccccc4)cc3)cc(C(=O)O)c2n1 [Compound 4, 6-([1,1′-biphenyl]-4-yl)-2-methyl-2H-benzo[d][1,2,3]triazole-4-carboxylic acid] | 107% | – |
| > 1000 nM | 1350 nM | Cn1nnc2cc(-c3ccc(-c4ccc(CN5CCOCC5)cc4)cc3)cc(C(=O)O)c21 [Compound 31, 1-methyl-5-(4′-(morpholinomethyl)-[1,1′-biphenyl]-4-yl)-1H-benzo[d][1,2,3]triazole-7-carboxylic acid] | – | 81% |
| > 1000 nM | 6140 nM | Cn1nc2cc(-c3ccc(-c4cccc(CN5CCOCC5)c4)cc3)cc(C(=O)O)c2n1 [Compound 16, 2-methyl-6-(3′-(morpholinomethyl)-[1,1′-biphenyl]-4-yl)-2H-benzo[d][1,2,3]triazole-4-carboxylic acid] | 124% | – |
| > 1000 nM | 8410 nM | Cn1nnc2cc(-c3ccc(-c4cccc(CN5CCOCC5)c4)cc3)cc(C(=O)O)c21 [Compound 15, 1-methyl-5-(3′-(morpholinomethyl)-[1,1′-biphenyl]-4-yl)-1H-benzo[d][1,2,3]triazole-7-carboxylic acid] | 96% | – |
| < 100 nM | 400 nM | Cn1nc2cc(-c3c(F)c(F)c(-c4ccccc4)c(F)c3F)cc(C(=O)O)c2n1 [Compound 24, 2-methyl-6-(2,3,5,6-tetrafluoro-[1,1′-biphenyl]-4-yl)-2H-benzo[d][1,2,3]triazole-4-carboxylic acid] | 104% | – |
| < 100 nM | 362 nM | Cc1ccc(C)n1-c1ccc(-c2cc(C(=O)O)c3c(c2)nnn3C)cc1 [Compound 12, 5-(4-(2,5-dimethyl-1H-pyrrol-1-yl)phenyl)-1-methyl-1H-benzo[d][1,2,3]triazole-7-carboxylic acid] | 103% | – |
| 101 to 1000 nM | 11800 nM | CN(C)Cc1cccc(-c2c(F)c(F)c(-c3cc(C(=O)O)c4c(c3)nnn4C)c(F)c2F)c1 [Compound 40, 5-(3′-((dimethylamino)methyl)-2,3,5,6-tetrafluoro-[1,1′-biphenyl]-4-yl)-1-methyl-1H-benzo[d][1,2,3]triazole-7-carboxylic acid] | 84% | – |

The remaining lines, values behind:

| SMILES | IC50 [1] | IC50 [2] | inhibition at 30 µM [2] | inhibition at 10 µM [2] |
| --- | --- | --- | --- | --- |
| Cn1nnc2cc(-c3ccc(-c4ccccc4CN4CCCC4)cc3)cc(C(=O)O)c21 [Compound 27, 1-methyl-5-(2′-(pyrrolidin-1-ylmethyl)-[1,1′-biphenyl]-4-yl)-1H-benzo[d][1,2,3]triazole-7-carboxylic acid] | > 1000 nM | 3050 nM | 89% | – |
| Cn1nnc2cc(-c3c(F)c(F)c(-c4cccc(CN5CCOCC5)c4)c(F)c3F)cc(C(=O)O)c21 [Compound 33, 1-methyl-5-(2,3,5,6-tetrafluoro-3′-(morpholinomethyl)-[1,1′-biphenyl]-4-yl)-1H-benzo[d][1,2,3]triazole-7-carboxylic acid] | 101 to 1000 nM | – | – | – |
| Cn1nnc2cc(-c3c(F)c(F)c(-c4cccc(CN5CCCCC5)c4)c(F)c3F)cc(C(=O)O)c21 [Compound 34, 1-methyl-5-(2,3,5,6-tetrafluoro-3′-(piperidin-1-ylmethyl)-[1,1′-biphenyl]-4-yl)-1H-benzo[d][1,2,3]triazole-7-carboxylic acid.2,2,2-trifluoroacetic acid] | 101 to 1000 nM | 675 nM | – | 111% |
| CNCc1cccc(-c2c(F)c(F)c(-c3cc(C(=O)O)c4c(c3)nnn4C)c(F)c2F)c1 [Compound 37, 1-methyl-5-(2,3,5,6-tetrafluoro-3′-((methylamino)methyl)-[1,1′-biphenyl]-4-yl)-1H-benzo[d][1,2,3]triazole-7-carboxylic acid] | > 1000 nM | – | – | – |
| Cc1ccc(C)n1-c1ccc(-c2cc(C(=O)O)c3nn(C)nc3c2)cc1 [Compound 13, 6-(4-(2,5-dimethyl-1H-pyrrol-1-yl)phenyl)-2-methyl-2H-benzo[d][1,2,3]triazole-4-carboxylic acid] | 101 to 1000 nM | 3880 nM | 100% | – |
| Cn1nnc2c(C(=O)O)cc(-c3ccc(-c4cccc(CN5CCCCC5)c4)cc3)cc21 [Compound 20, 1-methyl-6-(3′-(piperidin-1-ylmethyl)-[1,1′-biphenyl]-4-yl)-1H-benzo[d][1,2,3]triazole-4-carboxylic acid] | > 1000 nM | 3720 nM | 129% | – |
| CC(C)NCc1cccc(-c2c(F)c(F)c(-c3cc(C(=O)O)c4c(c3)nnn4C)c(F)c2F)c1 [Compound 36, 1-methyl-5-(2,3,5,6-tetrafluoro-3′-((isopropylamino)methyl)-[1,1′-biphenyl]-4-yl)-1H-benzo[d][1,2,3]triazole-7-carboxylic acid] | 101 to 1000 nM | – | – | – |
| CN1CCN(Cc2ccccc2-c2ccc(C3=CC4N=NN(C)C4C(C(=O)O)=C3)cc2)CC1 (stereo not shown) [Compound 29, 1-methyl-5-(2′-((4-methylpiperazin-1-yl)methyl)-[1,1′-biphenyl]-4-yl)-3a,7a-dihydro-1H-benzo[d][1,2,3]triazole-7-carboxylic acid] | 101 to 1000 nM | 8970 nM | 81% | – |
| Cn1nc2cc(-c3c(F)c(F)c(-c4cccc(CN5CCOCC5)c4)c(F)c3F)cc(C(=O)O)c2n1 [Compound 39, 2-methyl-6-(2,3,5,6-tetrafluoro-3′-(morpholinomethyl)-[1,1′-biphenyl]-4-yl)-2H-benzo[d][1,2,3]triazole-4-carboxylic acid] | 101 to 1000 nM | 1870 nM | 96% | – |
